Where “and” joins values, the source holds several entries; their conditions need not be identical. Equal values may be shown once.
Assays:
[1] = Hyperpolarisation by dynamic nuclear polarization and liquid state polarization measurement; assay type: physicochemical
Protocol: A 2:3 glycerol: [1-^13C] ethanol mixture, containing 15 mM trityl radical (OX063: tris (8-carboxy-2,2,6,6-tetra-(hydroxyethyl)-benzo-[1,2-4,50]-bis-(1,3)-dithiole-4-yl)-methyl, sodium salt; GE Healthcare, Little Chalfont, UK) and 1.5 mM gadoteric acid (DOTAREM; Guebert, Roissy, France), was polarized for approximately 120 minutes in a 3.35 T Hypersense polarizer (Oxford Instruments, Abingdon, Oxfordshire, UK) using irradiation at 94.124 GHz. The dissolution buffer (PBS, pH 7.5, 100 mg/L EDTA) was heated to 180°C and pressurized to 10 bar before dissolving the frozen polarized samples. The dissolved sample contained 110 mM [1-^13C] ethanol. For measurements of the liquid state polarization a sample of [1-^13C] ethanol was polarized and dissolved as described above. Two mL of the sample, containing approximately 60 mM [1-^13C] ethanol were injected into 2 mL of PBS buffer, pH 7.4 in a 10 mm NMR tube placed inside a vertical bore 9.4 T NMR spectrometer with a broadband probe tuned to ^13C (Varian NMR Instruments, Palo Alto, CA, U.S.). Immediately following injection and approximately 9 seconds after dissolution, 180 single transient spectra, with a nominal pulse flip angle of 6° and 8 kHz spectral width, were acquired with a TR of 1 second. Three 90° pulses were then applied to eliminate the remaining hyperpolarisation. A ^13C spectrum (the sum of 128 transients) was then acquired using a 6° pulse, a spectral width of 8 kHz, and a TR of 300 seconds. The temperature of the sample was kept at 37°C. The liquid state polarization was calculated from the ratio of the maximal integrated intensity of the hyperpolarised [1-^13C] ethanol signal to the integrated intensity of the thermal equilibrium signal corrected for the number of transients.

[2] = 13C T1 measurements in vitro (inversion recovery, 11 T); assay type: physicochemical; conditions: PBS buffer, pH 7.5, containing 4% BSA, n=2
Protocol: ^13C T1 measurements in vitro: Measurements were made at 11 T (Bruker Avance II^+ 500 MHz spectrometer) using an inversion recovery sequence in samples containing approximately 10 mM [1-^13C] ethanol or 1 M ethanol, 10% D2O and 4% BSA (Sigma Aldrich), buffered with PBS to pH 7.5. A TR of 300 seconds and 16 delays between 1 and 200 seconds were used for measurements with [1-^13C, U-^2H5] ethanol and a TR of 50 seconds and 16 delays between 0.5 and 50 seconds were used for measurements of the natural abundance ^13C signal from 1M ethanol.

[3] = Measurement of blood ethanol level (13C MRS on plasma samples); assay type: in vivo, mice; conditions: for ethanol concentration in plasma: plasma withdrawn 75 seconds after start of i.v. injection of 10 µl per g body weight of 110 mM ethanol
Protocol: Measurement of blood ethanol level: An appropriate volume of [2-^13C] ethanol, polarized and dissolved to the same concentration as [1-^13C] ethanol, was injected into the tail vein of animals that had been anesthetized for 30-45 minutes. Blood was withdrawn by cardiac puncture, which began 75 seconds after the start of ethanol injection and was completed within 30 seconds. Individual blood samples were transferred into separate BD Microtainer FE micro-collection tubes (BD, Franklin Lakes, NJ, US), centrifuged at 800 g and the plasma removed and frozen in liquid nitrogen. For NMR spectroscopy, plasma samples were thawed and diluted in 200 mM PBS in D2O, pH 7.5. The buffer contained 100 mM TMSP (2,2,3,3-D4 sodium-3-trimethylsilylpropionate) as an intensity and chemical shift standard (Cambridge Isotope Laboratories, Inc. Andover MA, US). ^13C spectra (the sum of 1024 transients) were acquired under fully relaxed conditions at 125 MHz (Bruker Avance II^+ 500 MHz spectrometer) into 25,294 data points using a 90° pulse, a sweep width of 5 kHz, and a TR of 35 seconds. Integrated intensities of the 2-^13C ethanol and 2-^13C acetate resonances were normalized to that of TMSP and multiplied by the methyl ^13C concentration in 100 mM TMSP (3.33 mM) in order to convert to acetate or ethanol concentrations.

ALDH2 [4] = target: T1, ALDH2 (Mus musculus, UniProt P47738); test: ALDH2 activity assay in liver extracts of treated animals; assay type: biochemical, mice; conditions: 24 hours after 600 mg/kg body weight disulfiram, versus control animals
T1 construct: animals were killed and their livers rapidly excised, freeze-clamped and stored at - 80°C before homogenization and enzyme assay; from tissue; host or cells: Triton X-100 extract of freeze-clamped mouse liver
T1 sequence (P47738 20-519): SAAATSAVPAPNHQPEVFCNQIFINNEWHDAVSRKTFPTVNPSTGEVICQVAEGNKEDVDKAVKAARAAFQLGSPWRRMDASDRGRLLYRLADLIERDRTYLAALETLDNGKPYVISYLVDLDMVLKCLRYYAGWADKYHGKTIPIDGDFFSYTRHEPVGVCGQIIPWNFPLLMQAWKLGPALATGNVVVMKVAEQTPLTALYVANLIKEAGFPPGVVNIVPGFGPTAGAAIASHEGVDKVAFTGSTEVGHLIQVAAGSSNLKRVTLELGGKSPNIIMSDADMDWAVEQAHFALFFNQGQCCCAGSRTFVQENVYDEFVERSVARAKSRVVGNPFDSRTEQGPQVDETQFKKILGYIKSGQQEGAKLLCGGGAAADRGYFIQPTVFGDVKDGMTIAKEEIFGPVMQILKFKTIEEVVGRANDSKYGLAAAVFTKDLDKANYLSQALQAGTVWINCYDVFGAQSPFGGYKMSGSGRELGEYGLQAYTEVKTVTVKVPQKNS
Protocol: Animals were given 100 mg/kg or 600 mg/kg body weight of disulfiram as a suspension in 5% w/v of gum arabicum, by oral gavage (Spielman, D.M., Mayer, D., Yen, Y.F., Tropp, J., Hurd, R.E., Pfefferbaum, A., "In vivo measurement of ethanol metabolism in the rat liver using magnetic resonance spectroscopy of hyperpolarised [1-13C]pyruvate.", Magn.Reson.Med. 2009; 62: 307-313). ^13C MRS experiments were performed approximately 24 hours after drug administration. In some experiments, shortly after completion of MRS measurements, animals were killed and their livers rapidly excised, freeze-clamped and stored at - 80°C before homogenization and enzyme assay.
Liver Tissue Extraction: Freeze-clamped livers were homogenized using a manual Potter S homogenizer (Sartorius, Epsom, UK) in 7 volumes (mL per gram wet weight of liver) of ice-cold extraction buffer (50 mM Tris-HCl, pH 7.4 containing 0.25 M sucrose, 0.1 % v/v 2-mercaptoethanol, 1 mM EDTA and protease inhibitor cocktail (Roche)). Ten strokes of 5 seconds (each followed by a 5 second pause) at 1000 r.p.m. were used. […]
ALDH2 activity assay: The assay mixture containing 0.5 mM NAD^+, 0.1 % v/v of 2-mercaptoethanol, 200 mM KCl in 100 mM sodium pyrophosphate buffer, pH 9.0. […] The formation of NADH was measured for 5 minutes after substrate addition as an increase in absorbance at 340 nm using a Tecan Sunrise 96 well plate reader. […]

ALDH2 [5] = target: T1, ALDH2; test: In vivo 13C MRS of acetate production from hyperpolarised [1-13C, U-2H5]ethanol in liver after disulfiram treatment; parameters: species or system mice; conditions: approximately 24 hours before MRS
Source text: All animal experiments were approved by local ethical review committees and performed in accordance with the Animals (Scientific Procedures) Act of 1986. Female CD1 mice (6-8 weeks old) were used in all experiments. Animals were anaesthetized using 3 % isoflurane vapor (Isoflo, Abbotts Laboratories Ltd, Maidenhead, UK) in an oxygen/air mixture. Anesthesia was maintained during the MR experiments with 1-2 % isoflurane vapor in an oxygen/air mixture delivered via a face mask.
In vivo NMR spectroscopy: A catheter was inserted in a tail vein and the mouse placed in a heated cradle. Throughout the experiment animal breathing rate and core body temperature were monitored using a Biotrig physiological monitor (Small Animal Instruments, Stony Brook, NY), which were within the range of 60-100 bpm and 36-37°C, respectively. A 20 mm diameter surface coil (Rapid Biomedical GmbH, Rimpar, Germany) was placed over the liver and the entire assembly placed in a ^13C/^1H volume coil (Rapid Biomedicals, Germany), in a 7T horizontal bore magnet (Varian, Palo Alto, CA). Livers were localized in transverse ^1H images, acquired using a spin-echo pulse sequence (TR, 1.5 s; echo time (TE), 10 ms; field of view, 40 mm x 40 mm; data matrix, 128 x 128; slice thickness, 2 mm; 15 slices). […] All data were phase and baseline corrected and the signal integrals for ethanol and acetate measured. […]

## [2H]C([2H])([2H])[13C]([2H])([2H])O [[1-^13C, U-^2H5]ethanol]
[1]; 3.35 T Hypersense polarizer, n=3
  polarization buildup time constant of dynamic nuclear polarization: 41.2 ± 5.5 min
[1]; hyperpolarised sample in PBS, 9.4 T, 37°C, SD, n=3
  T1 calculated from the decay of the polarization: 53.7 ± 3.2 s
[1]; measured approximately 9 seconds after dissolution
  liquid state polarization: 14.1 ± 3.3%
[2]
  ^13C T1: 56 s

## [13CH3]CO [[2-^13C] ethanol]
[3]; plasma withdrawn 75 seconds after start of ethanol injection, SD, n=3
  [1-^13C] acetate concentration in plasma: 0.93 ± 0.29 mM
[3]; SD, n=3
  ethanol concentration in plasma: 1.73 ± 0.48 mM

## CCN(CC)C(=S)SSC(=S)N(CC)CC [disulfiram]
ALDH2 [4]
  decrease of ALDH2 activity in liver extracts: 68%
ALDH2 [5]; disulfiram 100 mg/kg by oral gavage, n=1
  decrease of the maximum acetate signal (normalized to the maximum ethanol signal): approximately 43%
ALDH2 [5]; disulfiram 600 mg/kg body weight by oral gavage, SD, n=3
  decrease of the maximum acetate signal (normalized to the maximum ethanol signal): 79 ± 8% and ~79%

## CCO [ethanol]
[3]; calculated for 10 µl per g body weight of 110 mM ethanol, assuming water is approximately 74% of body weight
  expected ethanol concentration at equilibrium: approximately 1.5 mM
[3]; SD, n=3
  ethanol concentration in plasma: 1.73 mM
[2]
  ^13C T1: 9.9 s

— EP2891500B1, “Contrast agent for determination of aldehyde dehydrogenase (ALDH) activity” (Cambridge Enterprise Limited, priority 2014, dated 2015)
